From ChEMBL document CHEMBL1201862, “PubChem BioAssay data set” (2004)
One block for each compound: values may come before it. The source made the active and inactive calls.

Tests used:
[1] = target: Beta-2 adrenergic receptor (Homo sapiens, UniProt P07550); assay: beta2AR agonists driving receptor internalization, dose response, cell-based, FAP fluorogen, flow cytometry, cherry pick 1 (AID 588763); assay type: functional
Leucine aminopeptidase = target: T1, Leucine aminopeptidase (Plasmodium falciparum 3D7, UniProt Q8IL11); assay: P. falciparum M17LAP inhibitors, primary screen, biochemical, fluorogenic H-Leu-NHMec substrate, 1536-well (AID 1619); assay type: functional
T1 sequence (Q8IL11 whole entry): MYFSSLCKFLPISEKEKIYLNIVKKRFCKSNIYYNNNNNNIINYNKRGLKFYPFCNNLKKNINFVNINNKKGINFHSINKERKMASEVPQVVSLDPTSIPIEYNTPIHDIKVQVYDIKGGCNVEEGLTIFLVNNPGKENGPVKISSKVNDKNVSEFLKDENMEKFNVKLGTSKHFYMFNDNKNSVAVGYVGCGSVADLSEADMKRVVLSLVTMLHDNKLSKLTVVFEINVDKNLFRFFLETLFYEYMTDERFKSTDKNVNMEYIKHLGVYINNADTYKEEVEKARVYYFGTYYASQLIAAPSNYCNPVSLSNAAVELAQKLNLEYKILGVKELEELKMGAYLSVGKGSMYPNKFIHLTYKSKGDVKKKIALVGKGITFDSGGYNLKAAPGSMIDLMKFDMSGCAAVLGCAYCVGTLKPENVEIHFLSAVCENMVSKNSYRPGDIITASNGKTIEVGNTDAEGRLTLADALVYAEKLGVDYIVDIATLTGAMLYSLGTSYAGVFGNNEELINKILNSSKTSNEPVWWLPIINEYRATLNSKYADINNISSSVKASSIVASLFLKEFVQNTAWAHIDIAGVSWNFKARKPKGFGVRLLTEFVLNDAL

[2] = target: T2, Heat shock factor protein 1 (Mus musculus, UniProt P38532); assay: inhibition of MG132-induced HSE-luciferase signal, confirmation, cell-based, NIH3T3, luminescence, dose retest (AID 2382); assay type: functional;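 also: NIH3T3 fibroblasts with HSF1-driven luciferase reporter stressed by proteasome inhibitor MG132; luminescence from HSF1-driven luciferase expression after 8 hours of MG132 stress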
T2 sequence (P38532 whole entry): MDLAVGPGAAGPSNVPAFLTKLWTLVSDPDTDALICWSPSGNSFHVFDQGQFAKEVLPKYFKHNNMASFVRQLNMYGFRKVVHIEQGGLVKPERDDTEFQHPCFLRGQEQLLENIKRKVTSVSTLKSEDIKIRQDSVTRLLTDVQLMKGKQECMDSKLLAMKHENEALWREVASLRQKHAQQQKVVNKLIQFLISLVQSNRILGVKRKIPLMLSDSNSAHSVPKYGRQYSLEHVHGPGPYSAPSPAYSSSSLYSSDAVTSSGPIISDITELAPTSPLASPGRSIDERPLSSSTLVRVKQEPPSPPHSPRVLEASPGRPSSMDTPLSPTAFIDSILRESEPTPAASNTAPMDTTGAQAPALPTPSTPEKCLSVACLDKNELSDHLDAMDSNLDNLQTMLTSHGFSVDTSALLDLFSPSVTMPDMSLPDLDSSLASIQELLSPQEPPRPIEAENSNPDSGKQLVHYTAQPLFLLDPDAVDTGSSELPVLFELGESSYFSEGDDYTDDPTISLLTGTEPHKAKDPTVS

[3] = target: T3, Short transient receptor potential channel 4 (Mus musculus, UniProt Q9QUQ5); assay: mouse TRPC4 channel activators, dose response, cell-based, HEK293 TRPC4/mu-opioid, Fluo-4 calcium (AID 434937); assay type: functional
T3 sequence (Q9QUQ5 whole entry): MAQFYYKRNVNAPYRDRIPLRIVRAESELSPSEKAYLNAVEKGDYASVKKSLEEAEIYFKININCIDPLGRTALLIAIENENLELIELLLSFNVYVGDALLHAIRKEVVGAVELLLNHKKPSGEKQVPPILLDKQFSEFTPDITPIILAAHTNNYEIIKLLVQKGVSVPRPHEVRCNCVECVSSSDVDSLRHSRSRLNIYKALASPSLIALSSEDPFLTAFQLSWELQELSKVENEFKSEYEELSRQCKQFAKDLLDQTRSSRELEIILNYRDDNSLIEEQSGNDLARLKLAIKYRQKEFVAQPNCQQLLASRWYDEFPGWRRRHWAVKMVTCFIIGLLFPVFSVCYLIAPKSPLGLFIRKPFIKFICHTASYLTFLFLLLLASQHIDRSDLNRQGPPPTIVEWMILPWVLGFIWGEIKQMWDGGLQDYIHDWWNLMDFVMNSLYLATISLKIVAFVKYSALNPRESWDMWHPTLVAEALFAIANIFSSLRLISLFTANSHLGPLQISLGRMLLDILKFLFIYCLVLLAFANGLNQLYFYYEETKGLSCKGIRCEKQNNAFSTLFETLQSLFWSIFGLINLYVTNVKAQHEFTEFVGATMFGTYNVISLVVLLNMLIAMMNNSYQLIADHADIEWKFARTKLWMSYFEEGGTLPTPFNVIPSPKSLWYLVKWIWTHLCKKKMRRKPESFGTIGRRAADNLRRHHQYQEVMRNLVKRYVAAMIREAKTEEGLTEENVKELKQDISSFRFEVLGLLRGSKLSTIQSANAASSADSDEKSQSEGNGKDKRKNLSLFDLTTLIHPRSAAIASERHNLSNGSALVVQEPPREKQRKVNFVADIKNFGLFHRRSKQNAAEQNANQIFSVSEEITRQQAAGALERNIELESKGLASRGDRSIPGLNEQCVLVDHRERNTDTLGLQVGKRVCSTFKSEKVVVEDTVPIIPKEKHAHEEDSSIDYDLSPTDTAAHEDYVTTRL

Phospholipase D2 = Phospholipase D2 (Homo sapiens, UniProt O14939); assay: PLD2 inhibitor potency in cells, dose response (AID 602147); assay type: functional;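 also: cellular assay in HEK293 cells overexpressing GFP-tagged PLD2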
Phospholipase D1 = target: T4, Phospholipase D1 (Homo sapiens, UniProt Q13393); assay: PLD1 inhibitor potency in cells, dose response (AID 602151); assay type: functional;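 also: cellular PLD1 assay in Calu-1 cells stimulated with PMA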
T4 sequence (Q13393 whole entry): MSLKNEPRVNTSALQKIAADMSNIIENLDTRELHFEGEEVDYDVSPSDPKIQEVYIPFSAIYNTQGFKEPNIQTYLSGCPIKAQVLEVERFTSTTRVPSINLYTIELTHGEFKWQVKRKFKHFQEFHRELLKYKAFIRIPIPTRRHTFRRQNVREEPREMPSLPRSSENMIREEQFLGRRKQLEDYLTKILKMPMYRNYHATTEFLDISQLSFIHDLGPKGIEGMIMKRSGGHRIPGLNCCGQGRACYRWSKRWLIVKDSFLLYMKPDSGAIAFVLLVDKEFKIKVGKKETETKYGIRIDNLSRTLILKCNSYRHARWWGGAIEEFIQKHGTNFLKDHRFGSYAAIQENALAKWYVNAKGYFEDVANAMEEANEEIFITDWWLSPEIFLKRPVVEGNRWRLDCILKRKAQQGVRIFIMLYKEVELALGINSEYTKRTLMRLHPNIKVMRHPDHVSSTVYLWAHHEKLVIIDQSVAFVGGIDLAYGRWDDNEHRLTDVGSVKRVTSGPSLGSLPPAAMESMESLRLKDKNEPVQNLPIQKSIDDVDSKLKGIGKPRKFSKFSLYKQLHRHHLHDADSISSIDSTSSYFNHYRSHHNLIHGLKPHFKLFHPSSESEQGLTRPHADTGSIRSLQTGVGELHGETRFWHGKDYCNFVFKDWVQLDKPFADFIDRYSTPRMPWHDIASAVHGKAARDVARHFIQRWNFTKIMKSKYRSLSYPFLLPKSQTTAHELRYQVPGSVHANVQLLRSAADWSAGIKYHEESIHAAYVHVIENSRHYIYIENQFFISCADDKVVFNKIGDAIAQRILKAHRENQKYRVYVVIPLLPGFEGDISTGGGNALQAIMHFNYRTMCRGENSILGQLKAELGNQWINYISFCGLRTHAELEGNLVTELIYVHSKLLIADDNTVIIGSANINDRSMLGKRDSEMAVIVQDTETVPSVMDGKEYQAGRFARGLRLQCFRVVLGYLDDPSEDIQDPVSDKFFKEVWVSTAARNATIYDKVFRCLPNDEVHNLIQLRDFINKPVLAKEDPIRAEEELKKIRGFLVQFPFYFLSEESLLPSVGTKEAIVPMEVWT

[4] = off-target signal loss in HeLa-CEM21 co-culture – HeLa F-luc CTL cells, cherry-picked, counter-screen for HIV-1 Env fusion inhibitor project, dose response (AID 652040); assay type: functional, cell-based;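 also: potency for signal decrease marking cytotoxic or nonspecific inhibition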
[5] = inhibitors of clade B AD8 Env fusion, dose response, cell-based, cherry-pick (AID 652062); assay type: functional;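 also: luciferase signal from cell-cell fusion driven by HIV-1 clade B AD8 Env; potency is for inhibitors of fusion seen as a drop in luminescence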
[6] = inhibitors of HIV Env-driven cell fusion, dose response, cherry-pick (AID 652057); assay type: functional, cell-based
[7] = target: Peroxisome proliferator-activated receptor gamma/Nuclear receptor coactivator 1 (Homo sapiens, UniProt P37231); assay: TR-FRET dose response biochemical High Throughput Screening assay for agonists of the steroid receptor coactivator 1 (SRC-1) recruitment by the peroxisome proliferator-activated receptor gamma (PPAR gamma): non-selective agonists. [Related pubchem assays (depositor defined):AID1300, AID1808, AID504735, AID631]; assay type: protein assay
[8] = target: Peroxisome proliferator-activated receptor gamma/Nuclear receptor coactivator 2 (Homo sapiens, UniProt P37231); assay: (§1) TR-FRET dose response biochemical High Throughput Screening assay for agonists of the steroid receptor coactivator 2 (SRC-2) recruitment by the peroxisome proliferator-activated receptor gamma (PPAR gamma): non-selective agonists. [Related pubchem assays: 1297, 1032 ]; assay type: functional
[9] = target: Peroxisome proliferator-activated receptor gamma/Nuclear receptor coactivator 3 (Homo sapiens, UniProt P37231); assay: as §1, with “3 (SRC-3)” for “2 (SRC-2)”, “1301 (Confirmation screen.), 1048 (Primary screen.)]” for “1297, 1032 ]”; assay type: functional
Chain of Peroxisome proliferator-activated receptor gamma/Nuclear receptor coactivator 3 (P37231 whole entry): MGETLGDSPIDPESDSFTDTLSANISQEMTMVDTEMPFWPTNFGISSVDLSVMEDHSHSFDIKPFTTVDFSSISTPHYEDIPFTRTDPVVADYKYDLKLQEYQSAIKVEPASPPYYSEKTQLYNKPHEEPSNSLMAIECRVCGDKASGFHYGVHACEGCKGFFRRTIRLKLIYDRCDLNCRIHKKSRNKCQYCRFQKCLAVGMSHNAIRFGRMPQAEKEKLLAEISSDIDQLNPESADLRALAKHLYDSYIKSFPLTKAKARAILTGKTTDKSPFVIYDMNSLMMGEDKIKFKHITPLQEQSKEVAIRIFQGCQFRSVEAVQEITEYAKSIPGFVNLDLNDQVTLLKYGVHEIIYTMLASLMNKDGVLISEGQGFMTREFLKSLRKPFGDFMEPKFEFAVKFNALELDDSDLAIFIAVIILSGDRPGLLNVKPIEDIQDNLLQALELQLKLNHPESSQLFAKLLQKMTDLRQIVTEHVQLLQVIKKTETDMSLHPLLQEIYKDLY
Chain of Peroxisome proliferator-activated receptor gamma/Nuclear receptor coactivator 3 (Q9Y6Q9 whole entry, further chain): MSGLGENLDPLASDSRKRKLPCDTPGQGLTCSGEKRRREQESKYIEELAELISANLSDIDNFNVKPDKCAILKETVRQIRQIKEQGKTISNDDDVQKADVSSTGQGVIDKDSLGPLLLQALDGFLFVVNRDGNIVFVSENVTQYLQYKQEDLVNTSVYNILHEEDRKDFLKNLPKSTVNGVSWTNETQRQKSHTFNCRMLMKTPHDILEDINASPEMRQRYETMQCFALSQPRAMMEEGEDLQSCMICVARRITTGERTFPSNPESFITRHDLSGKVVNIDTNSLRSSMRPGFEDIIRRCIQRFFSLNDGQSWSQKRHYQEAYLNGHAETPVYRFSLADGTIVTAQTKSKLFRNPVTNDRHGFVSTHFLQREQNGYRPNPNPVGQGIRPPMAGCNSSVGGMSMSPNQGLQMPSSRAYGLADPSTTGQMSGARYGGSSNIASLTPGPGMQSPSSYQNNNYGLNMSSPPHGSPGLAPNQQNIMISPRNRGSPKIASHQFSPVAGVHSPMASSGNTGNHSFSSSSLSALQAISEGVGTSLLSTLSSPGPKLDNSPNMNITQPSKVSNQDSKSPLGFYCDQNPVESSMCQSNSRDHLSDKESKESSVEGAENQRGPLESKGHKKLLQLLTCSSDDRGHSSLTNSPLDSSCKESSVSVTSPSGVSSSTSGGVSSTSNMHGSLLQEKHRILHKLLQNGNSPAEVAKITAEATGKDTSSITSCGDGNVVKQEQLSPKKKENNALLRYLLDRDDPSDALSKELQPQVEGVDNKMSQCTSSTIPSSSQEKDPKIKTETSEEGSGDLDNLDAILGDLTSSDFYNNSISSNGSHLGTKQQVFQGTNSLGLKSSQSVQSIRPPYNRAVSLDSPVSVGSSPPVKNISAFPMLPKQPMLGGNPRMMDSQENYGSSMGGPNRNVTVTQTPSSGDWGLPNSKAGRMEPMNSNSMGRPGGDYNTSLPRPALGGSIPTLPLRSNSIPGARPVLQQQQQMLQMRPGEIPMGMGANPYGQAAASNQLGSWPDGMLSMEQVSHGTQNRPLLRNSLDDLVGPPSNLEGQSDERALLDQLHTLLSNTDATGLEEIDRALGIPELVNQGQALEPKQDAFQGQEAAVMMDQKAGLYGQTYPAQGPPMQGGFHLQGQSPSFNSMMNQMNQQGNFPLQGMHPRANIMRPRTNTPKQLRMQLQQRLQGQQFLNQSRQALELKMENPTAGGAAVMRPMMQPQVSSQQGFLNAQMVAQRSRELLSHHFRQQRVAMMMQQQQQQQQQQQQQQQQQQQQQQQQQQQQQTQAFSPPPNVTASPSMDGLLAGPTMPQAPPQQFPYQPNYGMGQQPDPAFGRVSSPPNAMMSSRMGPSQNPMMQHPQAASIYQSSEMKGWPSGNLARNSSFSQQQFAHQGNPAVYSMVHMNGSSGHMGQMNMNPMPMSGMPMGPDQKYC

Chain of Phospholipase D2 (O14939 whole entry): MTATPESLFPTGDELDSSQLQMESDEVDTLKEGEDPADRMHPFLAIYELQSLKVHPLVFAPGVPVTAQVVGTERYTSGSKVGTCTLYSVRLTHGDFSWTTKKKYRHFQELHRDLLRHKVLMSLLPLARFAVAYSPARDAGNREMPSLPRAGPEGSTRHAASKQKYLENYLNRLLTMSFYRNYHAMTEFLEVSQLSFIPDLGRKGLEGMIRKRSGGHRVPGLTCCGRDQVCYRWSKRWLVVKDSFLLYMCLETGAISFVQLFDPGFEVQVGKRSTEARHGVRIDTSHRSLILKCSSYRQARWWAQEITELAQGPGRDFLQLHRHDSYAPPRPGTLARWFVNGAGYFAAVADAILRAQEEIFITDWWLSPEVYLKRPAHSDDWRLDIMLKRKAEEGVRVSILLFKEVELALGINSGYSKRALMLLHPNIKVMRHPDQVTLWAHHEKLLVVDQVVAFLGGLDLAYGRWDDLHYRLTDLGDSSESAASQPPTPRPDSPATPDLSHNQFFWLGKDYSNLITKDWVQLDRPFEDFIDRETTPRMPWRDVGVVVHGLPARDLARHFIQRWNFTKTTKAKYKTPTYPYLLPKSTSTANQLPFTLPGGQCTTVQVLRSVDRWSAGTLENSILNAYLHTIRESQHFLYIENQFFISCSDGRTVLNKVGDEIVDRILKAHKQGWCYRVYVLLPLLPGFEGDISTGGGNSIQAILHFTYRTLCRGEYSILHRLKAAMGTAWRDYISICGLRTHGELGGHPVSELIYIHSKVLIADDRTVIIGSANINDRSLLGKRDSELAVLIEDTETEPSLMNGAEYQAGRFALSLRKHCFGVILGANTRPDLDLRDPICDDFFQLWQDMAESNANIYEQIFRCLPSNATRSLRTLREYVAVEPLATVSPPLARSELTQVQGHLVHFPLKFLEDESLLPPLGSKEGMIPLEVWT
Chain of Beta-2 adrenergic receptor (P07550 whole entry): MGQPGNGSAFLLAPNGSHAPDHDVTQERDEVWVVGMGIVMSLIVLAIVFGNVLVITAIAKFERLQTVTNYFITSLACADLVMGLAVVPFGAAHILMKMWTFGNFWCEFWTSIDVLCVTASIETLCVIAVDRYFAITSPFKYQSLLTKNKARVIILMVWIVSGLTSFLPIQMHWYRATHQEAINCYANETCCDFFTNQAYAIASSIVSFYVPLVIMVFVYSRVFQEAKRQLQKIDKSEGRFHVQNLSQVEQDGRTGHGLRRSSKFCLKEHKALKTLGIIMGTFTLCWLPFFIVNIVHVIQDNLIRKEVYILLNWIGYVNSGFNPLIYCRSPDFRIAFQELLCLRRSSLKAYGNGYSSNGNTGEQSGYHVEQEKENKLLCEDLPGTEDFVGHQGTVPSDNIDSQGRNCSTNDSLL

EC50 [1]: 4.34 µM (active)
Compound: COc1ccc(C2/C=C\CN(Cc3ccc(N(C)C)cc3)CC(=O)N2Cc2ccc(F)cc2)cc1 (stereo not drawn)

IC50 (Leucine aminopeptidase): 58 µM (active) | EC50 [2]: > 195 µM (not active) | EC50 [3]: 1.68 µM (active)
Compound: Cc1cccc(C(=O)NC(=S)NNC(=O)c2ccccc2Cl)c1

Compound: CC(C)[C@@H](CN1CCC2(CC1)C(=O)NCN2c1ccccc1)NC(=O)c1cc2ccccc2[nH]1
IC50 (Phospholipase D2): 29 nM (active) | IC50 (Phospholipase D1): 7 nM (active)

Compound: O=C(NCCN1CCC(n2c(=O)[nH]c3cc(I)ccc32)CC1)C1CC1c1ccccc1 (stereo not drawn)
IC50 (Phospholipase D2): 345 nM (active) | IC50 (Phospholipase D1): 9 nM (active)

Compound: C[C@@H](CN1CCC2(CC1)C(=O)NCN2c1ccc(F)c(F)c1)NC(=O)c1cnc2ccccc2c1
IC50 (Phospholipase D2): 76 nM (active) | IC50 (Phospholipase D1): 16 nM (active)

Compound: C[C@@H](CN1CCC(n2c(=O)[nH]c3ccccc32)CC1)NC(=O)c1cccnc1
IC50 (Phospholipase D2): 14000 nM (active) | IC50 (Phospholipase D1): 85 nM (active)

Compound: COCCn1c(=S)[nH]c2cc(C(=O)N3CCN(Cc4ccc5c(c4)OCO5)CC3)ccc2c1=O
AC50 [4]: 60.2 µM (active) | AC50 [5]: 44.6 µM (active) | AC50 [6]: 29.3 µM (active)

EC50 [7]: 4.03 µM (active) | EC50 [8]: 5.27 µM (active) | EC50 [9]: > 79.4 µM (not active)
Compound: C=CCn1c(=S)[nH]c2scc(-c3cccs3)c2c1=O
